US6608082B1, “Treatment of erectile dysfunction using isoquinoline compound melanocortin receptor ligands” (Lion Bioscience AG, priority 1998, dated 2003)

Legend:
MCR-4 = target: T1, MCR-4 (Homo sapiens, UniProt P32245); experiment: Melanocortin receptor binding assay, competition with 125I-HP 467, HEK 293 cells expressing hMCR-4; details: inhibition of binding of 125I-HP 467, HEK 293 cells expressing MCR-4, TRG 2414 library; for IC50: read-out: MC-4 IC50
T1 construct: expressed in transfected cells; host or cells: HEK 293
T1 sequence (P32245 whole entry): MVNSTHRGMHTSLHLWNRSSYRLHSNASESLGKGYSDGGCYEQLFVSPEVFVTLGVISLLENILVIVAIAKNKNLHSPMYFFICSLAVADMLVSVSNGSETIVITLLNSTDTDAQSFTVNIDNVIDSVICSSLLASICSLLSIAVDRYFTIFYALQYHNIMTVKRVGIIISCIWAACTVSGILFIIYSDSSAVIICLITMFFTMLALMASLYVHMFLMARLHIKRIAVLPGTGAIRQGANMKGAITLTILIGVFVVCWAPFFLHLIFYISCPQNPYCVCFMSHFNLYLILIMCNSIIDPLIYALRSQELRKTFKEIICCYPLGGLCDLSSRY
Procedure, shortened: (§1)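 Test compounds compete on intact HEK 293 cells carrying hMCR-1 (2×10^4 per tube) or hMCR-4 (4×10^3 per tube), suspended in PBS, 10% calf serum, 1 mM CaCl2.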

MCR-1 = target: T2, MCR-1 (Homo sapiens, UniProt Q01726); experiment: Melanocortin receptor binding assay, competition with 125I-HP 467, HEK 293 cells expressing hMCR-1; details: inhibition of binding of 125I-HP 467, HEK 293 cells expressing MCR-1, TRG 2414 library; for IC50: read-out: MC-1 IC50
T2 construct: expressed in transfected cells; host or cells: HEK 293
T2 sequence (Q01726 whole entry): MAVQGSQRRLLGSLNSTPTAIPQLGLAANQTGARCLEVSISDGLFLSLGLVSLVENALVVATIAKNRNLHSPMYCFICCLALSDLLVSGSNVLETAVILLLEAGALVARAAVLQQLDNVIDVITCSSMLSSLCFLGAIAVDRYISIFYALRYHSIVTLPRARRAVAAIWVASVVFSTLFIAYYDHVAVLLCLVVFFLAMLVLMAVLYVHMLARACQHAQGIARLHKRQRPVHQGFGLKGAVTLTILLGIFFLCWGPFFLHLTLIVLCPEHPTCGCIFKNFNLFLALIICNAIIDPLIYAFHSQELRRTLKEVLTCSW
Procedure, shortened: as §1

NCC(CCCCN1Cc2ccccc2C(CNC2CCCCCC2)C1c1ccc(Cl)cc1Cl)NCc1ccccc1 (centres unmarked) [TRG 2414-35]
IC50 (MCR-4): 5.67 µM
IC50 (MCR-1): 2.17 µM

CC(C)Cc1ccc(C(C)CNC(CN)CCCCN2Cc3ccccc3C(CNC3CCCCCC3)C2c2ccc(Cl)cc2Cl)cc1 (centres unmarked) [TRG 2414-36]
IC50 (MCR-4): 9.92 µM
IC50 (MCR-1): 8.65 µM

NCC(CCCCN1Cc2ccccc2C(CNC2CCCCC2)C1c1ccc(Cl)cc1Cl)NCCc1ccccc1 (centres unmarked) [TRG 2414-38]
IC50 (MCR-4): 3.96 µM
IC50 (MCR-1): 1.92 µM

CC(C)Cc1ccc(C(C)CNC(CN)CCCCN2Cc3ccccc3C(CNC3CCCCC3)C2c2ccc(Cl)cc2Cl)cc1 (centres unmarked) [TRG 2414-40]
IC50 (MCR-4): 17.5 µM
IC50 (MCR-1): 8.64 µM

NCC(N)CCCCN1Cc2ccccc2C(CNCc2ccccc2C(F)(F)F)C1c1cc(C(F)(F)F)cc(C(F)(F)F)c1 (centres unmarked) [TRG 2414-41]
IC50 (MCR-4): 15.6 µM
IC50 (MCR-1): 34.2 µM

NCC(CCCCN1Cc2ccccc2C(CNCc2ccccc2C(F)(F)F)C1c1cc(C(F)(F)F)cc(C(F)(F)F)c1)NCCc1ccccc1 (centres unmarked) [TRG 2414-42]
IC50 (MCR-4): 30.2 µM
IC50 (MCR-1): 32.8 µM

NCC(CCCCN1Cc2ccccc2C(CNCc2ccccc2C(F)(F)F)C1c1cc(C(F)(F)F)cc(C(F)(F)F)c1)NCc1ccccc1 (centres unmarked) [TRG 2414-43]
IC50 (MCR-4): 42 µM
IC50 (MCR-1): 56.9 µM

CC(C)Cc1ccc(C(C)CNC(CN)CCCCN2Cc3ccccc3C(CNCc3ccccc3C(F)(F)F)C2c2cc(C(F)(F)F)cc(C(F)(F)F)c2)cc1 (centres unmarked) [TRG 2414-44]
MC-4 IC50 (MCR-4): no fit
MC-1 IC50 (MCR-1): no fit

CCOc1ccccc1CNCC1c2ccccc2CN(CCCCC(N)CN)C1c1cc(C(F)(F)F)cc(C(F)(F)F)c1 (centres unmarked) [TRG 2414-45]
IC50 (MCR-4): 0.92 µM
IC50 (MCR-1): 6.34 µM

CCOc1ccccc1CNCC1c2ccccc2CN(CCCCC(CN)NCCc2ccccc2)C1c1cc(C(F)(F)F)cc(C(F)(F)F)c1 (centres unmarked) [TRG 2414-46]
IC50 (MCR-4): 4.25 µM
IC50 (MCR-1): 6.54 µM

CCOc1ccccc1CNCC1c2ccccc2CN(CCCCC(CN)NCc2ccccc2)C1c1cc(C(F)(F)F)cc(C(F)(F)F)c1 (centres unmarked) [TRG 2414-47]
IC50 (MCR-4): 7.51 µM
IC50 (MCR-1): 7.74 µM

CCOc1ccccc1CNCC1c2ccccc2CN(CCCCC(CN)NCC(C)c2ccc(CC(C)C)cc2)C1c1cc(C(F)(F)F)cc(C(F)(F)F)c1 (centres unmarked) [TRG 2414-48]
IC50 (MCR-4): 38.8 µM
IC50 (MCR-1): 33.5 µM

COc1ccccc1CCNCC1c2ccccc2CN(CCCC[C@H](N)CN)C1c1cc(C(F)(F)F)cc(C(F)(F)F)c1 (some centres unmarked) [TRG 2414-49]
IC50 (MCR-4): 0.32 µM
IC50 (MCR-1): 3.77 µM

COc1ccccc1CCNCC1c2ccccc2CN(CCCCC(CN)NCCc2ccccc2)C1c1cc(C(F)(F)F)cc(C(F)(F)F)c1 (centres unmarked) [TRG 2414-50]
IC50 (MCR-4): 4.94 µM
IC50 (MCR-1): 8.09 µM

COc1ccccc1CCNCC1c2ccccc2CN(CCCCC(CN)NCc2ccccc2)C1c1cc(C(F)(F)F)cc(C(F)(F)F)c1 (centres unmarked) [TRG 2414-51]
IC50 (MCR-4): 2.16 µM
IC50 (MCR-1): 6.45 µM

NCC(N)CCCCN1Cc2ccccc2C(CNCCc2cccc(Cl)c2)C1c1cc(C(F)(F)F)cc(C(F)(F)F)c1 (centres unmarked) [TRG 2414-53]
IC50 (MCR-4): 0.64 µM
IC50 (MCR-1): 9.78 µM

NCC(CCCCN1Cc2ccccc2C(CNCCc2cccc(Cl)c2)C1c1cc(C(F)(F)F)cc(C(F)(F)F)c1)NCCc1ccccc1 (centres unmarked) [TRG 2414-54]
IC50 (MCR-4): 3.06 µM
IC50 (MCR-1): 9.81 µM

NCC(CCCCN1Cc2ccccc2C(CNCCc2cccc(Cl)c2)C1c1cc(C(F)(F)F)cc(C(F)(F)F)c1)NCc1ccccc1 (centres unmarked) [TRG 2414-55]
IC50 (MCR-4): 3.12 µM
IC50 (MCR-1): 12.5 µM

CC(C)Cc1ccc(C(C)CNC(CN)CCCCN2Cc3ccccc3C(CNCCc3cccc(Cl)c3)C2c2cc(C(F)(F)F)cc(C(F)(F)F)c2)cc1 (centres unmarked) [TRG 2414-56]
IC50 (MCR-4): 42.6 µM
MC-1 IC50 (MCR-1): no fit

COc1cccc(CNCC2c3ccccc3CN(CCCCC(N)CN)C2c2cc(C(F)(F)F)cc(C(F)(F)F)c2)c1 (centres unmarked) [TRG 2414-57]
IC50 (MCR-4): 1.55 µM
IC50 (MCR-1): 7.7 µM

COc1cccc(CNCC2c3ccccc3CN(CCCCC(CN)NCCc3ccccc3)C2c2cc(C(F)(F)F)cc(C(F)(F)F)c2)c1 (centres unmarked) [TRG 2414-58]
IC50 (MCR-4): 3.45 µM
IC50 (MCR-1): 6.72 µM

COc1cccc(CNCC2c3ccccc3CN(CCCCC(CN)NCc3ccccc3)C2c2cc(C(F)(F)F)cc(C(F)(F)F)c2)c1 (centres unmarked) [TRG 2414-59]
IC50 (MCR-4): 6.76 µM
IC50 (MCR-1): 9.64 µM
